Test in all cases: growth of human tumour cells (NCI), 48 h
Assay [1] deals with A498.
The subject of assay [2] is CAKI-1.
For assay [3], the system named is HOP-62.
Assay [4] concerns HT-29.
In assay [5] the test system is K562.
The test system of assay [6] is M14.
In assay [7] the test system is MCF7.
The subject of assay [8] is MDA-MB-435.
Assay [9] has as its system MDA-N.
Assay [10] concerns NCI-H522.
The subject of assay [11] is NCI/ADR-RES.
The test system of assay [12] is SF-295.
The test system of assay [13] is SK-MEL-28.
Assay [14] concerns SK-MEL-2.
Assay [15] has as its system SN12C.
For assay [16], the system named is SNB-19.
Assay [17] relates to SNB-75.
The subject of assay [18] is SW-620.
Assay [19] deals with U-251.

These results are taken from ChEMBL document CHEMBL1201862, “PubChem BioAssay data set” (2004).

Molecules are shown by their SMILES.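 Following 48 hours of exposure in 96-well plates, responses at five concentrations were used to interpolate endpoints linearly. Abbreviation: GI50, concentration required for 50% inhibition of growth.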 Activity calls are given as the source filed them. Cut-off read from the data, not from the text of the source: active = GI50 up to about 1.1 µM and inactive = higher. Peptide text beside a SMILES is read from it. * marks the point of attachment. Cbz = O=C(OCc1ccccc1)*

On to `O=C(O)CCC(NC(=O)OCc1ccccc1)C(=O)NC(Cc1c[nH]cn1)C(=O)O` (stereo not drawn) (Cbz-Glu-His-OH; configuration not given here), for which the GI50 in assay [1], in assay [2], in assay [3], in assay [4], in assay [5] and in assay [6] was > 100 µM (inactive) throughout. The GI50 in [7], in assay [8], in assay [9], in [10], in assay [11] and in assay [12] was > 100 µM (inactive) each time. The GI50 in assay [13], in assay [14], in [15], in assay [16], in assay [17] and in [18] was > 100 µM (inactive) throughout. The GI50 in assay [19] is > 100 µM (inactive).
`Cc1cccc2sc(NC(=O)NS(=O)(=O)n3cnc4ccccc43)nc12`: the GI50 in [1] was 25.5 µM (inactive); in assay [2], 34.7 µM (inactive); in [3], 34.7 µM (inactive); in [4] it was 33.9 µM (inactive); in assay [6], 31.3 µM (inactive); in assay [7], 16.1 µM (inactive). Further, the GI50 in [8] is 27.9 µM (inactive); in assay [9] it was 31.3 µM (inactive); in assay [10], 21.6 µM (inactive); in [11] it was 27.4 µM (inactive); in assay [12], 20.9 µM (inactive); in [13] it was 35.9 µM (inactive). Moreover, the GI50 in [14] was 18.7 µM (inactive); in [15], 25.9 µM (inactive); in assay [16] it was 38 µM (inactive); in assay [17], 18.8 µM (inactive); in assay [18] it was 28.4 µM (inactive); in assay [19] it was 21 µM (inactive).
For the molecule `CC(C)(C)OC(=O)NC(CCC(=O)OCc1ccccc1)C(=O)NCCCO` (stereo unspecified), the GI50 in assay [1], in [2], in assay [3], in [4], in assay [5] and in assay [6] was > 100 µM (inactive) in each case. In addition, the GI50 in assay [7], in assay [8], in assay [9], in [10], in assay [11] and in [13] was > 100 µM (inactive) each time. For the same molecule, the GI50 in assay [14], in [15], in [16], in assay [17], in assay [18] and in assay [19] was > 100 µM (inactive) each time.
`CC1OC(O[C@H]2CC[C@]3(C)[C@H]4CC=C5[C@@H]6[C@@H](C)[C@H](C)CC[C@]6(C(=O)OC6OC(CO)C(O)C(O)C6O)CC[C@@]5(C(=O)O)[C@]4(C)CC[C@H]3C2(C)C)C(O)C(O)C1O` (stereo partly specified): the GI50 in [1], in assay [2], in assay [3], in [5], in [6] and in assay [7] was > 100 µM (inactive) each time. Besides, the GI50 in [8], in assay [9], in assay [10], in assay [11], in assay [12] and in [14] was > 100 µM (inactive) each time. In addition, the GI50 in assay [15], in [16], in assay [17], in assay [18] and in assay [19] was > 100 µM (inactive) each time.
Consider `Nc1nc(N)c2ncn(-c3ccc(Cl)cc3)c2n1`, for which the GI50 in assay [1] is 21.8 µM (inactive); in assay [2], 20.4 µM (inactive); in assay [3], 74.3 µM (inactive); in assay [4] it was 35.1 µM (inactive); in assay [6], 39 µM (inactive); in assay [7] it was 41.3 µM (inactive). The GI50 is 87.3 µM (inactive) in assay [8]; 89.1 µM (inactive) in assay [9]; 28.6 µM (inactive) in assay [10]; 33.7 µM (inactive) in assay [11]; 33.7 µM (inactive) in [12]; > 100 µM (inactive) in assay [13]. Moreover, the GI50 in [14] was 39.6 µM (inactive); in assay [15] it was 36.6 µM (inactive); in assay [17] it was 10.1 µM (inactive); in assay [19], 49.1 µM (inactive).
`CCC12CN(C(=O)OC)C3C(Br)C1CCC(=O)C32` (stereo unspecified): the GI50 in assay [1], in [2], in [3], in assay [4], in assay [5] and in [6] was > 100 µM (inactive) throughout. Besides, the GI50 was > 100 µM (inactive) in assay [7]; > 100 µM (inactive) in [8]; > 100 µM (inactive) in [9]; 84.1 µM (inactive) in assay [10]; > 100 µM (inactive) in assay [11]; > 100 µM (inactive) in assay [12]. The GI50 in assay [13], in assay [14], in assay [16], in [17], in [18] and in [19] was > 100 µM (inactive) throughout.
On to `Clc1cc2c(cc1Cl)CC(NCCN1CCCC1)CC2` (stereo unspecified), for which the GI50 is 13.7 µM (inactive) in [1]; 15.7 µM (inactive) in assay [2]; 16 µM (inactive) in assay [3]; 4.35 µM (inactive) in [4]; 10.8 µM (inactive) in assay [5]; 12 µM (inactive) in assay [6]. Also, the GI50 in assay [7] is 15.6 µM (inactive); in assay [8], 3.73 µM (inactive); in assay [9], 3.85 µM (inactive); in assay [10], 17.1 µM (inactive); in [11], 13.7 µM (inactive); in assay [12], 16.1 µM (inactive). For the same molecule, the GI50 was 10.2 µM (inactive) in assay [13]; 17.8 µM (inactive) in assay [14]; 15.8 µM (inactive) in assay [15]; 20.5 µM (inactive) in assay [16]; 18.9 µM (inactive) in assay [18]; 15.9 µM (inactive) in assay [19].
On to `COCC([C@@H](O)C(O)C(=O)NCC[C@@H](C)c1nc(/C=C/CC2OC3(C[C@H](O)C2C)OC(C(C[C@H](O)C(C)[C@H](O)C(C)/C=C(C)/C(C)=C/C=C/C(C)=C/C#N)OC)[C@@H](OP(=O)(O)O)C3(C)C)co1)N(C)C` (stereo partly specified), for which the GI50 is 0.00188 µM (active) in assay [1]; 0.000174 µM (active) in [2]; 0.000162 µM (active) in [4]; 0.000296 µM (active) in [5]; 0.000173 µM (active) in [6]; 0.000184 µM (active) in assay [7]. The GI50 in assay [8] was 0.000175 µM (active); in assay [9] it was 0.000191 µM (active); in assay [10], 0.000167 µM (active); in assay [11] it was 0.00107 µM (active); in [12], 0.000184 µM (active); in [13], 0.000184 µM (active). Further, the GI50 in [14] was 0.000188 µM (active); in assay [15] it was 0.000179 µM (active); in [16], 0.000195 µM (active); in assay [17] it was 0.000182 µM (active); in assay [18] it was 0.000182 µM (active); in [19] it was 0.000191 µM (active).
Consider `COC(=O)C12C3C4C1C1C2C3C41C(=O)NC(C)(C)CC(=O)O` (stereo unspecified), for which the GI50 in assay [1], in assay [2], in assay [3], in [4], in assay [6] and in assay [7] was > 100 µM (inactive) each time. Also, the GI50 in assay [8], in assay [9], in [10], in assay [11], in [12] and in [13] was > 100 µM (inactive) in each case. Besides, the GI50 in assay [14], in assay [15], in assay [16], in assay [17], in assay [18] and in [19] was > 100 µM (inactive) in each case.
For `CC#CCCN(CC#N)Cc1ccccc1`, the GI50 was 20.4 µM (inactive) in assay [1]; > 100 µM (inactive) in assay [2]; > 100 µM (inactive) in [3]; > 100 µM (inactive) in assay [4]; > 100 µM (inactive) in assay [5]; > 100 µM (inactive) in assay [6]. Further, the GI50 in assay [7] is 20.1 µM (inactive); in assay [8] it was > 100 µM (inactive); in assay [9] it was > 100 µM (inactive); in [10], > 100 µM (inactive); in assay [11] it was > 100 µM (inactive); in assay [12], > 100 µM (inactive). Besides, the GI50 in [13], in assay [14], in [15], in assay [16], in assay [17] and in assay [19] was > 100 µM (inactive) throughout.
For `O=c1c2cc(I)ccc2nc(SCc2nnco2)n1Cc1ccccc1`, the GI50 is 50.8 µM (inactive) in assay [1]; > 100 µM (inactive) in [2]; 98.4 µM (inactive) in [3]; 60.5 µM (inactive) in assay [4]; > 100 µM (inactive) in [6]; 81.1 µM (inactive) in [7]. The GI50 was > 100 µM (inactive) in [8]; > 100 µM (inactive) in assay [9]; 44 µM (inactive) in [10]; > 100 µM (inactive) in assay [11]; 98.2 µM (inactive) in assay [12]; > 100 µM (inactive) in assay [13]. Besides, the GI50 is 81.8 µM (inactive) in assay [14]; 49.1 µM (inactive) in assay [15]; > 100 µM (inactive) in assay [16]; 56.5 µM (inactive) in assay [17]; > 100 µM (inactive) in assay [18]; > 100 µM (inactive) in [19].
